Measurements reported in patent publication US20230357179A1, “RAF KINASE INHIBITORS AND METHODS OF USE THEREOF” (Deciphera Pharmaceuticals, LLC, priority 2021, published 2023).

Experiments:
A-Raf kinase = biological target: T1, A-Raf kinase (Homo sapiens, UniProt P10398, Y301D/Y302D); assay: Biochemical assay for A-Raf.1 (coupled pyruvate kinase/lactate dehydrogenase); conditions: read-out: ARAF.1 IC50
T1 construct: purchased Sigma
Summary of the method: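 IC50 values came from four-parameter sigmoidal fits of percent inhibition, using rates over the 4 to 5 h window of continuous A340 readings (6 h, 30° C). The coupled PK/LDH system tracked NADH oxidation during 5.55 nM A-Raf activity on 30.1 nM MEK at 1 mM ATP, buffer pH 7.5.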

B-Raf kinase = biological target: T2, B-Raf kinase (Homo sapiens, UniProt P15056); assay: Biochemical assay for B-Raf.1 (coupled pyruvate kinase/lactate dehydrogenase); conditions: read-out: BRAF.1 IC50
T2 construct: GST (N); purchased Sigma
T2 sequence (P15056 416-766): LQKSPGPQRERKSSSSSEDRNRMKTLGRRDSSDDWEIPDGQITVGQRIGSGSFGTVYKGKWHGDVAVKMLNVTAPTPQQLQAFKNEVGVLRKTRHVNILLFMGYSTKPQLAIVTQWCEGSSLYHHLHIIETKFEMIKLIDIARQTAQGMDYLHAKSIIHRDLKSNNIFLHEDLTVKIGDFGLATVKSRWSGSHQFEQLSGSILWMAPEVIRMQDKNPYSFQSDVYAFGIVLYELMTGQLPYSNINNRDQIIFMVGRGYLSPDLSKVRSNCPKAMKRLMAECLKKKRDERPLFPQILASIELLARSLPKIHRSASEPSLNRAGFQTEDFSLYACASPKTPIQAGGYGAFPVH
Summary of the method: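 Reaction rates over the 4–5 h window of a continuous 6 h, 30 °C read were converted to percent inhibition and fitted for IC50. B-Raf (0.13 nM) phosphorylated 30.1 nM MEK with 1 mM ATP; ADP coupled via PK/LDH to NADH loss at 340 nm, 1% DMSO final.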

C-Raf kinase = biological target: T3, C-Raf kinase (Homo sapiens, UniProt P04049, Y340D/Y341D); assay: Biochemical assay for C-Raf.1 (coupled pyruvate kinase/lactate dehydrogenase); conditions: read-out: CRAF.1 IC50
T3 construct: Y340D,; GST (N); purchased Sigma
T3 sequence (P04049 307-648 Y340D/Y341D): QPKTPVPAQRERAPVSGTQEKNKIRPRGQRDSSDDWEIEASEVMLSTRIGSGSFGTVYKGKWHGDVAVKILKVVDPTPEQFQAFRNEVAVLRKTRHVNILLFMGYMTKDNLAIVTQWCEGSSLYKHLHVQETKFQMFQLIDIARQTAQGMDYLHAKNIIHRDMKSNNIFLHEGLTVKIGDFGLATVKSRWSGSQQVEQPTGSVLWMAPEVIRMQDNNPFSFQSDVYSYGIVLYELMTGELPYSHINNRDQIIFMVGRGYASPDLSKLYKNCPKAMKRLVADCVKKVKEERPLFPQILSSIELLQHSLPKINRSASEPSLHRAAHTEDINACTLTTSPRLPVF
Summary of the method: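 NADH depletion at 340 nm monitored continuously for 6 h at 30° C, with rates taken over 4–5 h. The coupled pyruvate kinase/lactate dehydrogenase reaction used 1 mM ATP, 30.1 nM MEK substrate and 0.43 nM kinase at pH 7.5. IC50 was fitted sigmoidally from percent inhibition of serially diluted compound.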

B-Raf (V600E) kinase = biological target: T4, B-Raf (V600E) kinase (Homo sapiens, UniProt P15056, V600E); assay: Biochemical assay for B-Raf (V600E).1 (coupled pyruvate kinase/lactate dehydrogenase); conditions: read-out: BRAF V600E.1 IC50
T4 construct: B-Raf (V600E) residues 416-766 with a; GST (N); purchased SignalChem
T4 sequence (P15056 416-766 V600E): as the sequence (P15056 416-766) above, with V185E counted along it
Summary of the method: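 IC50 came from four-parameter sigmoidal fits of percent inhibition, using reaction rates over 3-4 h. Continuous A340 reading (6 h, 30 °C) of a pyruvate kinase/lactate dehydrogenase-coupled reaction: B-Raf V600E 0.03 nM, MEK 30.1 nM, ATP 1 mM, Tris pH 7.5, 1% DMSO.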

T1 sequence (P10398 with tags, fused parts or gaps Y301D/Y302D): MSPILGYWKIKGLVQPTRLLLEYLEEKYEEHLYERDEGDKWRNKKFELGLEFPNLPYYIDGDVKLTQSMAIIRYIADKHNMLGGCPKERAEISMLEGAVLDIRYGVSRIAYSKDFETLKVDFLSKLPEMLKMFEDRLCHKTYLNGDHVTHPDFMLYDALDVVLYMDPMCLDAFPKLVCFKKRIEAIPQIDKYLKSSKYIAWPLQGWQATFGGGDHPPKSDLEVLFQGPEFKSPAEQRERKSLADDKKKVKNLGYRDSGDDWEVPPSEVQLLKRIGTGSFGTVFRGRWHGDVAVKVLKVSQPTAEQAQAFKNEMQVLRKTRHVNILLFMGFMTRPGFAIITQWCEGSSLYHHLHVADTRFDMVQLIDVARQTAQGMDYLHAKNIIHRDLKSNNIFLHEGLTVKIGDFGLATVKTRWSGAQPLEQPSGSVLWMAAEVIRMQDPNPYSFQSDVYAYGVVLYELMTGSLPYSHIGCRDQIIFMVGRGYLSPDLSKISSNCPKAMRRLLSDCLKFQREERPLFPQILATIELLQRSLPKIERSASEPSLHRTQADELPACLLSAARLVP

Row | Compound | IC50 (A-Raf kinase) | IC50 (B-Raf kinase) | IC50 (C-Raf kinase) | IC50 (B-Raf (V600E) kinase)
1 | Cc1ncc(NC(=O)NCCC2(C)CC2)cc1-c1cc(OCCO)nc(-c2ccnc(NC(=O)C3CC3)c2)n1 [Example 133] | 500 to 1000 nM | ≤ 100 nM | ≤ 100 nM | ≤ 100 nM
2 | COC(=O)Nc1cc(-c2nccc(-c3cc(NC(=O)NCCC4(C)CC4)cnc3C)n2)ccn1 [Example 135] | > 1000 nM | 100 to 500 nM | ≤ 100 nM | ≤ 100 nM
3 | COC1(CCNC(=O)Nc2cnc(C)c(-c3ccnc(-c4ccnc(NC(=O)C5CC5)c4)n3)c2)CC1 [Example 137] | > 1000 nM | 100 to 500 nM | ≤ 100 nM | ≤ 100 nM
4 | COC(=O)Nc1cc(-c2cccc(-c3cc(NC(=O)NCCC4(OC)CC4)cnc3C)c2)ncn1 [Example 138] | > 1000 nM | 100 to 500 nM | ≤ 100 nM | ≤ 100 nM
5 | Cc1cc(F)c(NC(=O)NCCC(C)(C)F)cc1-c1cc(-c2ccnc(NC(=O)C3CC3)c2)cnn1 [Example 139] | > 1000 nM | ≤ 100 nM | ≤ 100 nM | ≤ 100 nM
6 | COC(=O)Nc1cc(-c2nccc(-c3cc(NC(=O)NCCC4(OC)CC4)cnc3C)n2)ccn1 [Example 143] | > 1000 nM | 500 to 1000 nM | 100 to 500 nM | ≤ 100 nM
7 | COC(=O)Nc1cc(-c2nccc(-c3cc(NC(=O)NCCC4(OC)CC4)c(F)cc3C)n2)ccn1 [Example 146] | > 1000 nM | ≤ 100 nM | ≤ 100 nM | ≤ 100 nM
8 | COC(=O)Nc1cc(-c2nccc(-c3cc(NC(=O)NCCC(C)(C)F)c(F)cc3C)n2)ccn1 [Example 147] | > 1000 nM | ≤ 100 nM | ≤ 100 nM | ≤ 100 nM
9 | COC[C@@H]1CCN(C(=O)Nc2cc(-c3cc(-c4ccnc(NC(=O)OC)c4)cnn3)c(C)cc2F)C1 [Example 149] | > 1000 nM | 500 to 1000 nM | 500 to 1000 nM | ≤ 100 nM
10 | COC(=O)Nc1cc(-c2cnnc(-c3cc(NC(=O)N4CCC(CC(F)(F)F)C4)c(F)cc3C)c2)ccn1 (stereo not shown) [Example 150] | > 1000 nM | ≤ 100 nM | ≤ 100 nM | ≤ 100 nM
11 | COC(=O)Nc1cc(-c2cc(-c3cc(NC(=O)NCCC4(C)CC4)cnc3C)cc(OCCO)n2)ccn1 [Example 151] | > 1000 nM | ≤ 100 nM | ≤ 100 nM | ≤ 100 nM
12 | COC[C@H]1CCN(C(=O)Nc2cnc(C)c(-c3cc(OCCO)nc(-c4ccnc(NC(=O)OC)c4)c3)c2)C1 [Example 152] | > 1000 nM | 100 to 500 nM | 100 to 500 nM | ≤ 100 nM
13 | COC(=O)Nc1cc(-c2cnnc(-c3cc(NC(=O)NCCC(C)(C)OC)cnc3C)c2)ccn1 [Example 153] | > 1000 nM | 500 to 1000 nM | 500 to 1000 nM | ≤ 100 nM
14 | CNC(=O)c1cc(-c2cnnc(-c3cc(NC(=O)NCCC(C)(C)OC)cnc3C)c2)ccn1 [Example 154] | > 1000 nM | > 1000 nM | > 1000 nM | ≤ 100 nM
15 | COC(=O)Nc1cc(-c2cc(-c3cc(NC(=O)NCCC4COC4)c(F)cc3C)cc(OCCO)n2)ccn1 [Example 155] | > 1000 nM | ≤ 100 nM | ≤ 100 nM | ≤ 100 nM
16 | COC(=O)Nc1cc(-c2cc(-c3cc(NC(=O)N[C@H]4C[C@](C)(F)C4)cnc3C)cc(OCCO)n2)ccn1 [Example 157] | > 1000 nM | ≤ 100 nM | ≤ 100 nM | ≤ 100 nM
17 | COC(=O)Nc1cc(-c2nc(OCCO)cc(-c3cc(NC(=O)NC4CC(C)(C)C4)c(F)cc3C)n2)ccn1 [Example 158] | > 1000 nM | ≤ 100 nM | ≤ 100 nM | ≤ 100 nM
18 | Cc1cc(F)c(NC(=O)NCCC(C)(C)F)cc1-c1ccnc(-c2ccnc(NC(=O)C3CC3)c2)c1 [Example 159] | 500 to 1000 nM | ≤ 100 nM | ≤ 100 nM | ≤ 100 nM
19 | COC[C@@H]1CCN(C(=O)Nc2cnc(C)c(-c3cc(OCCO)nc(-c4ccnc(NC(=O)OC)c4)c3)c2)C1 [Example 160] | > 1000 nM | 100 to 500 nM | 100 to 500 nM | ≤ 100 nM
20 | COC(C)(C)CCNC(=O)Nc1cc(-c2ccnc(-c3ccnc(NC(=O)C4CC4)c3)c2)c(F)cc1F [Example 162] | > 1000 nM | ≤ 100 nM | ≤ 100 nM | ≤ 100 nM
21 | COC(=O)Nc1cc(-c2cc(-c3cc(NC(=O)NCCC(C)(C)OC)c(F)cc3F)ccn2)ccn1 [Example 163] | > 1000 nM | 100 to 500 nM | 100 to 500 nM | ≤ 100 nM
22 | COC(=O)Nc1cc(-c2cc(-c3cc(NC(=O)N4CCC(C)(C)CC4)cnc3C)cc(OCCO)n2)ccn1 [Example 166] | > 1000 nM | 100 to 500 nM | ≤ 100 nM | ≤ 100 nM
23 | Cc1cc(F)c(NC(=O)NCCC2(C)CC2)cc1-c1cnnc(-c2ccnc(NC(=O)C3CC3)c2)c1 [Example 168] | 500 to 1000 nM | ≤ 100 nM | ≤ 100 nM | ≤ 100 nM
24 | Cc1ncc(NC(=O)NCCC2(C)CC2)cc1-c1ccnc(-c2ccnc(NC(=O)C3(C#N)CC3)c2)c1 [Example 169] | > 1000 nM | ≤ 100 nM | ≤ 100 nM | ≤ 100 nM
25 | COC(=O)Nc1cc(-c2cccc(-c3cc(NC(=O)NCCC4(C)CC4)cnc3C)c2)ncn1 [Example 170] | > 1000 nM | ≤ 100 nM | ≤ 100 nM | ≤ 100 nM
26 | COC(=O)Nc1cc(-c2ccnc(-c3cc(NC(=O)NCCC(C)(C)OC)c(F)cc3C)n2)ccn1 [Example 171] | > 1000 nM | ≤ 100 nM | ≤ 100 nM | ≤ 100 nM
27 | Cc1ncc(NC(=O)NCCN2CCC2)cc1-c1cc(OCCO)nc(-c2ccnc(NC(=O)C3CC3)c2)c1 [Example 172] | > 1000 nM | > 1000 nM | > 1000 nM | 100 to 500 nM

Next, values leading:

Row | IC50 (A-Raf kinase) | IC50 (B-Raf kinase) | IC50 (C-Raf kinase) | IC50 (B-Raf (V600E) kinase) | Compound
28 | 500 to 1000 nM | ≤ 100 nM | ≤ 100 nM | ≤ 100 nM | Cc1cc(F)c(NC(=O)NCCC2(C)CC2)cc1-c1ccnc(-c2ccnc(NC(=O)C3CC3)c2)c1 [Example 134]
29 | > 1000 nM | ≤ 100 nM | ≤ 100 nM | ≤ 100 nM | Cc1ncc(NC(=O)NCCC(C)(C)F)cc1-c1ccnc(-c2ccnc(NC(=O)C3CC3)c2)n1 [Example 136]
30 | > 1000 nM | 100 to 500 nM | 100 to 500 nM | ≤ 100 nM | COC(=O)Nc1cc(-c2cnnc(-c3cc(NC(=O)NCCC(C)(C)OC)c(F)cc3C)c2)ccn1 [Example 140]
31 | > 1000 nM | ≤ 100 nM | ≤ 100 nM | ≤ 100 nM | COC(=O)Nc1cc(-c2cnnc(-c3cc(NC(=O)NCCC(C)(C)F)c(F)cc3C)c2)ccn1 [Example 141]
32 | > 1000 nM | ≤ 100 nM | ≤ 100 nM | ≤ 100 nM | COC(C)(C)CCNC(=O)Nc1cc(-c2cc(-c3ccnc(NC(=O)C4CC4)c3)cnn2)c(C)cc1F [Example 142]
33 | > 1000 nM | ≤ 100 nM | ≤ 100 nM | ≤ 100 nM | Cc1ncc(NC(=O)NC2CC(C)(C)C2)cc1-c1cc(OCCO)nc(-c2ccnc(NC(=O)C3CC3)c2)n1 [Example 144]
34 | > 1000 nM | ≤ 100 nM | ≤ 100 nM | ≤ 100 nM | COC(=O)Nc1cc(-c2cc(-c3cc(NC(=O)NCCC4(OC)CC4)c(F)cc3C)ccn2)ccn1 [Example 145]
35 | > 1000 nM | 500 to 1000 nM | 500 to 1000 nM | ≤ 100 nM | COC[C@H]1CCN(C(=O)Nc2cc(-c3cc(-c4ccnc(NC(=O)OC)c4)cnn3)c(C)cc2F)C1 [Example 148]
36 | > 1000 nM | ≤ 100 nM | ≤ 100 nM | ≤ 100 nM | COC(=O)Nc1cc(-c2cc(-c3cc(NC(=O)NC4CC(C)(C)C4)cnc3C)cc(OCCO)n2)ccn1 [Example 156]
37 | > 1000 nM | ≤ 100 nM | ≤ 100 nM | ≤ 100 nM | COC(=O)Nc1cc(-c2nc(OCCO)cc(-c3cc(NC(=O)NCCC(C)(C)F)c(F)cc3C)n2)ccn1 [Example 161]
38 | > 1000 nM | ≤ 100 nM | ≤ 100 nM | ≤ 100 nM | CNC(=O)c1cc(-c2cc(-c3cc(NC(=O)NCCC4(C)CC4)c(F)cc3C)cc(OCCO)n2)ccn1 [Example 164]
39 | > 1000 nM | ≤ 100 nM | ≤ 100 nM | ≤ 100 nM | COC(=O)Nc1cc(-c2cc(-c3cc(NC(=O)NCCC(C)(C)F)cnc3C)cc(OCCO)n2)ccn1 [Example 165]
40 | 500 to 1000 nM | ≤ 100 nM | ≤ 100 nM | ≤ 100 nM | Cc1cc(F)c(NC(=O)NC2CC(C)(C)C2)cc1-c1cc(OCCO)nc(-c2ccnc(NC(=O)C3CC3)c2)n1 [Example 167]
